For orientation: melting point means the temperature, or range, at which the solid turns liquid. `Cc1[nH]c2c(N3CCNCC3)cccc2c1S(=O)(=O)c1ccccc1` came in with a melting point of 188 to 190 °C.

Take `Cc1ccccc1-c1c(CC(=O)O)c(=O)oc2ccc(Cl)cc12`: the melting point lay within 180 to 183 °C.

`C=CC1C(=O)N(c2ccc(OC)cc2)C1C(=O)OCC` (stereo not given): the melting point lay in the range of 70 to 72 °C.

`CCc1c(C(=O)C(C)C)c2ccc(-c3nnn[nH]3)cc2n1Cc1ccccc1Cl` gave a melting point of 160 to 163 °C.

In turn, `O=C(c1ccccc1Cl)c1cc(Cl)ccc1-n1cnnc1CCl` returned a melting point of 139 to 140 °C.

The molecule `CCCc1nc(C(=O)C(C)C)c(C#N)[nH]1` had a melting point of 90.5 to 91 °C.

`NC(=O)N1c2ccccc2C(Cl)=C(Cl)c2ccccc21` gave a melting point of 265 to 270 °C.

`O=C(c1cccc2cc[nH]c12)N1CCN(c2ncccn2)CC1` yielded a melting point of 194 to 197 °C.

Turning to `Cc1oc(C2(C)CCCCC2)nc1C(=O)O`, the melting point lay within 128 to 129 °C.

For `Cc1cc2c(nc1C(O)c1cccs1)CCCCC2` (stereo not given), the melting point lay in the range of 102 to 104 °C.

For `CCC(C)=NNC(=O)c1cccc2nnsc12`, the melting point is 159 to 162 °C.

`CCN(CC)c1ccc(C(O)C#Cc2ccc(C(=O)O)cc2)cc1C(C)C` (stereo not given): the melting point came to 145 °C.

For the molecule `CCCCC1(CCCC)CCc2c(OCc3ccccc3C#N)cccc2C1O` (stereo not given), the melting point fell in the range of 112 to 113 °C.

The molecule `Cc1ccc(-c2cccc3c2CC(CNC(=O)OCc2ccccc2)O3)cc1` (stereo not given) registered a melting point of 134 to 136 °C.

On to `CN(C)C=NS(=O)(=O)c1ccc(Br)s1`, for which the melting point was in the range of 103 to 105 °C.

The molecule `c1ccc(COc2ccc(CNn3cncn3)cc2)cc1` showed a melting point of 123 to 124 °C.

`CCN(CC)Cc1cc(O)ccc1O`: the melting point is 114 °C.

For the molecule `CCN(CC)CC1(C)Cc2c(C)c(N3CCN(c4ccc(OC)cc4)CC3)c(C)c(C)c2O1` (stereo not given), the melting point was in the range of 103 to 106 °C.

`Oc1ccc(-c2cc3cc(Br)cc(Br)c3o2)cc1` gave a melting point of 203 to 205 °C.

In turn, `C=Cc1cccc(OC)c1[N+](=O)[O-]` registered a melting point of 55 to 56 °C.

With `C1CCN(CCN2CCNCC2)CC1`, the melting point fell in the range of 60 to 62 °C.

For `O=C1CC(c2cccc(-n3ccnc3)c2)=Nc2cc(N3CCC4(CC3)OCCO4)c(-c3ccccc3F)cc2N1`, the melting point was determined as 225 °C.

For the molecule `O=C(Nc1ccc(C2=CN(C(=O)OCc3ccccc3)CCC2)c(F)c1)OCc1ccccc1`, the melting point fell in the range of 138 to 139 °C.

As for `O=S(=O)(c1ccccc1)n1cc(CCOC2OC(CO)CC(O)C2O)c2ccccc21` (stereo not given), the melting point fell in the range of 64 to 65 °C.

As for `COC(=O)c1cscc1NC(=O)COc1ccc(-c2ccccc2)cc1`, the melting point lay in the range of 132 to 135 °C.

`CCOC(=O)/C=C(\C)c1cccc([N+](=O)[O-])c1` gave a melting point of 43 to 44 °C.

Molecule `Cc1nnsc1C(=O)Nc1ccc(-n2nc(C3CC3)cc2C2CC2)c(F)c1` had a melting point of 148 to 152 °C.

For `OC(COc1cccc2ccccc12)CN1CCCC1` (stereo not given), the melting point is 68 to 70 °C.

`O=C(Nc1ccccc1)NC1C(=O)N(CC2C3CC4CC(C3)CC2C4)c2ccccc2N(c2ccccc2)C1=O` (stereo not given) returned a melting point of 192 to 193 °C.

`Nc1nc(-c2cc(Cl)ccc2Cl)nc(N2CC(CO)C2)n1`: the melting point was 224 to 226 °C.

As for `CCN(CC)CC1CCCN(CCNC(=O)N2c3cc(Cl)ccc3C(=O)Nc3cccnc32)C1` (stereo not given), the melting point was 125 °C.

Regarding `CC1=C(c2ccncc2)SC(Nc2ccccc2)C(=O)N1` (stereo not given), the melting point is 162 to 165 °C.

Take `Cc1cc(F)ccc1-c1cccc(C(=O)Nc2ccc(OCCN3CCOCC3)c3ccccc23)c1`: the melting point fell in the range of 95 to 97 °C.

In turn, `OCc1nc2cc(Cl)cnc2[nH]1` displayed a melting point of 209 to 211 °C.

`CS(=O)(=O)O[C@H](COCc1ccccc1)[C@@H](COCc1ccccc1)OS(C)(=O)=O` came in with a melting point of 72 to 73 °C.

For the molecule `CCOC(=O)c1cccc(-c2nc(-c3ccc(C)c(C)c3)cs2)c1`, the melting point was in the range of 114 to 115 °C.

`COc1cc2nc(N3CCc4c(CN5CCOCC5)cccc4C3)[nH]c(=O)c2cc1OC` displayed a melting point of 228 to 230 °C.

In turn, `CCCCN1C(=O)C(C)(C)N=C(c2ccccc2F)c2cc([N+](=O)[O-])cc(Cl)c21` displayed a melting point of 151 °C.

`Cc1ccccc1NC(=O)CN1C(=O)c2ccccc2C1=O` displayed a melting point of 254 °C.

`CC1(C)CC(c2ccccc2)c2ccc(OCC3CO3)cc2O1` (stereo not given) had a melting point of 82 to 85 °C.

`CC(C)(C)CC(=O)N1CCN(c2ccc3ncc(Br)n3n2)CC1` came in with a melting point of 170 to 171 °C.

The molecule `CCc1ccc(NC(C)=O)cc1` gave a melting point of 94 to 96 °C.

Consider `CCCCNc1cc(CNCc2cccc(O)c2)cc(S(N)(=O)=O)c1Oc1ccccc1`, for which the melting point was in the range of 174 to 175 °C.

The molecule `COC(=O)CN1CCC[C@H](OCc2cc(C(F)(F)F)cc(C(F)(F)F)c2)[C@@H]1c1ccccc1` (relative stereo) yielded a melting point of 60 to 70 °C.

`Cc1c(Cc2ccc(N3C(=O)C=CC3=O)c(C)c2C)ccc(N2C(=O)C=CC2=O)c1C` yielded a melting point of 210 to 220 °C.

`CS(=O)(=O)NC(=O)c1ccccc1Nc1ccc(CCCc2ccc(Cl)c(Cl)c2)cc1` gave a melting point of 53 to 61 °C.

For the molecule `CS(=O)(=O)c1ccc(-c2cnn(Cc3ccccc3)c(=O)c2-c2ccc3c(c2)COC3=O)cc1`, the melting point is > 250 °C.

With `O=C1NC(=O)c2c1c(-c1ccccc1Cl)cc1[nH]c3ccc(C(O)CO)cc3c21` (stereo not given), the melting point fell in the range of 265 to 268 °C.

For `CC(=O)c1c(-c2ccc(C(F)(F)F)cc2)[nH]c(-c2ccncc2)c1C`, the melting point lay within 178 to 180 °C.

For the molecule `CCCN(C(C)C)[C@H]1COc2cccc(C(N)=O)c2C1`, the melting point was 121 to 122 °C.

For `CS(=O)(=O)c1ccc(-c2cnn(-c3ccc(F)c(F)c3)c(=O)c2Cc2ccc(F)cc2)cc1`, the melting point is 157 to 159 °C.

For `CCn1c(=O)oc2cc(N3C[C@H](C(=O)NC)OC3=O)ccc21`, the melting point fell in the range of 263 to 265 °C.

As for `O=C(CCl)N(c1ccccc1)c1cccc(F)c1`, the melting point fell in the range of 115 to 117 °C.

The molecule `CC(C)Nc1n[nH]c(=O)n1N` showed a melting point of 150 to 152 °C.

For the molecule `CCCCCCC(=N)NC(=S)Nc1ccc(OC(F)(F)F)cc1`, the melting point is 90 to 91 °C.

`CCOC(=O)COc1ccc2c(c1)C(=O)CC1(CCCCC1)O2` displayed a melting point of 72 to 73 °C.

In the case of `CCOC(=O)c1ncc2ccccc2n1`, the melting point lay within 71 to 74 °C.

With `Cc1ccc2ncn(-c3nnn[nH]3)c(=O)c2c1`, the melting point lay in the range of 285 to 286 °C.

The molecule `CC(C)(C)OC(=O)N1C[C@@H](O)[C@H](n2ccnn2)C1` (relative stereo) registered a melting point of 91 to 93 °C.

`CCOC(=O)C(C)(C)c1ccc(C(O)CCCN2CCC(=C3c4ccccc4CCc4ccccc43)CC2)cc1` (stereo not given) returned a melting point of 142 to 144 °C.

In turn, `CCSc1ccc(C2=NC[C@@H](OC(=O)Nc3ccccc3)[C@H](c3ccccc3)O2)cc1` (racemic) came in with a melting point of 70 °C.

`NCCCc1cc(Nc2nc(-c3ccccc3)nc3ccccc23)[nH]n1` gave a melting point of 205 to 207 °C.

The molecule `Cc1ccc(-c2ccc(C(=O)Nc3cc4ncc(CN5CCCC5)cc4cc3C)c(F)c2)cc1` gave a melting point of 176 to 179 °C.

`CCS(=O)(=O)c1ccc(C(=O)NCc2ccc3c(c2)CN(C2CCC(=O)NC2=O)C3=O)cc1` (stereo not given) came in with a melting point of 222 to 224 °C.

On to `CCCn1c(=O)c2c(NC)n[nH]c2n(CCOCc2ccccc2)c1=O`, for which the melting point was 224 to 226 °C.

In the case of `C=C(c1cn(-c2c(Cl)cc(C(F)(F)F)cc2Cl)nc1C#N)C(F)(F)F`, the melting point fell in the range of 103 to 104 °C.

`CCC(=Cc1cn(CC(=O)N(C)CCc2ccccc2)c2cccc(OCc3ccccc3)c12)C(=O)O` came in with a melting point of 170 to 174 °C.

For `O=CN(O)C(CS(=O)(=O)c1ccc(-c2ccc(OC(F)(F)F)cc2)cc1)c1ccccn1` (stereo not given), the melting point is 116 to 118 °C.

With `CCc1ccnc2c([N+](=O)[O-])cc(OC)cc12`, the melting point lay in the range of 158 to 159 °C.

Take `COc1ccc2c(c1)CC(COS(=O)(=O)c1ccc(C)cc1)CC2` (stereo not given): the melting point lay in the range of 64 to 66 °C.

On to `O=C(CC1c2ccccc2CCc2ccccc21)Nc1ccc(C(=O)O)cc1`, for which the melting point fell in the range of 248 to 250 °C.

Consider `CCCN(CCC)C1CCc2ccc3c(c2C1)OCC3=O` (stereo not given), for which the melting point fell in the range of 56 to 64 °C.

`O=c1[nH]c2ccc(S(=O)CCN3CCC(Cc4ccc(Cl)cc4)CC3)cc2o1` (stereo not given): the melting point was in the range of 213 to 214 °C.

`COC(=O)c1ccc(C=O)s1` showed a melting point of 79 °C.

For the molecule `CCCc1nc(NCCOC(C)=O)nc(N2CCOCC2)n1`, the melting point lay within 94 to 95 °C.

Turning to `CC(C)c1cc(C(C)C)c(NC(=O)CN2CCN(CCCSc3nc4ccccc4s3)CC2)c(C(C)C)c1`, the melting point lay within 107 to 108 °C.

The molecule `CC1(C)COC(c2ccc(F)cc2Cl)=N1` returned a melting point of 138 to 139 °C.

Consider `O=Cc1ccc(CN2C(=O)c3ccccc3C2=O)c2ccccc12`, for which the melting point is 190 to 192 °C.

The molecule `C#Cc1cc(C(C)(C)C)cc(C(C)(C)C)c1OCC` showed a melting point of 46 to 47 °C.

In the case of `O=C1Nc2cc(Br)ccc2Oc2cscc21`, the melting point was in the range of 245 to 249 °C.

Consider `CC(CO)c1ccc(-c2ccccc2F)cc1` (stereo not given), for which the melting point fell in the range of 73 to 74 °C.

In turn, `Cn1ncc2c(=S)n3c(nc21)SCC3` registered a melting point of 199 to 200 °C.

With `CS(=O)(=O)NC1CCN(Cc2ccccc2)CC1`, the melting point fell in the range of 135 to 136 °C.

As for `O=c1c2cc(F)c(N3CCCC3)cc2n(Cc2ccccc2)c(=O)n1O`, the melting point was 234 to 236 °C.

With `COC(=O)C1=C(N)CCC(C#N)(c2ccc(OC)c(OCC3CC3)c2)C1` (stereo not given), the melting point fell in the range of 164 to 165 °C.

`CCOC(=O)c1ccc(OCC(O)COc2cccc(O)c2C(C)=O)cc1` (stereo not given) displayed a melting point of 104 to 106 °C.

Molecule `NCC(=O)N1Cc2ccccc2Oc2ccc(Cl)cc21` yielded a melting point of 108 to 109 °C.

`O=C(O)CCCCCCCn1c(Cc2ccccc2)nc(-c2ccccc2)c1-c1ccccc1` had a melting point of 148 to 149 °C.

On to `Cc1ccncc1-c1nc(-c2ccc(S(N)(=O)=O)cc2)cs1`, for which the melting point was 219 °C.

On to `O=c1ccn(-c2cccnc2)nc1-c1ccnn1-c1ccccc1`, for which the melting point fell in the range of 176 to 177 °C.

The record behind these values is a melting point compilation (Tetko et al.; mined from patent text by program, amines drawn as free bases though some values may be those of a salt).
